Consider 3 compounds from patent US20240173435A1, “GENE DELIVERY FOR PREVENTION AND TREATMENT OF BALDNESS” (NEW JERSEY INSTITUTE OF TECHNOLOGY, priority 2022, published 2024).

Data set [1] in a line: Ionizable cationic lipid library screening, in vitro delivery of luciferase mRNA (mLuc). The class given is cell-based. To be noted: 18*8 library, lipid:DOPE:cholesterol:DMG-PEG 50:10:38.5:1.5. An excerpt: An ionizable cationic lipid is generally composed of three parts: (1) hydrophilic headgroups containing one or multiple ionizable amines for condensing negatively charged mRNA; (2) hydrophobic hydrocarbon chains capable of promoting self-assembly and phospholipid membrane fusion; (3) degradable ester linkers connecting the headgroups with hydrocarbon chains to potentially lower systemic cytotoxicity (FIG. 8b). A new library of ionizable cationic lipids is designed, where the ionizable amine headgroups originated from different amino alcohols and the hydrocarbon lipid chains were derived from commercially available lipid acids. Through CALB enzyme-assisted reaction, the hydroxyl groups were reacted with carboxylic acids via one-step high-efficiency esterification (FIG. 8a) and an 18*8 library of lipid-like materials was synthesized by varying amino alcohols and lipid acids (ACS Nano, 16 (11) 18936-18950). Preliminarily, these lipid-like materials with DOPE, cholesterol, and DMG-PEG were fabricated at a molar ratio of 50:10:38.5:1.5, which was the most widely used formulation to form LNPs and delivered luciferase encoded mRNA (mLuc) in vitro to generate a luciferase expression heat map of lipid-like materials.

Another data set deals with Androgen Receptor gene. Put plainly: Knockout percentage by Sanger sequencing and ICE analysis of GFP-positive sorted cells. The class given is cell-based, human. Particulars: GFP-positive sorted HEK 293T cells, ICE analysis, n=5. On the procedure: Cas9 mRNA was purchased from Tri-Link Biotechnologies. Guide RNAs, which target the 1st coding exon in both human and mouse AR genes, were designed so that any frameshift mutation would result in early termination of translation. All gRNAs were obtained from Synthego with “end-modified” synthesis where the first and last three bases of these gRNA were synthesized using 2′-O-Methyl-nucleosides and joined via 3′ phosphorothioate bonds.
The in vitro transfection efficacy was evaluated in the HEK 293 cell line by delivering plasmid PX458 integrated with GFP, Cas9 and gRNA sequence, utilizing nanoparticles. Briefly, 1×10^5 HEK 293 cells were seeded into each well of 24-well plate with 0.5 mL complete culture medium and incubated at 37° C. overnight to allow cell attachment. Then the LNPs were seeded at 24 h. The transfected GFP positive cells were observed under All-in-One Fluorescence Microscope (BZ-X710, Keyence, Japan) at predetermined time points with brightfield, fluorescent and merged channels using 10×PanFluor lens (Nikon, Japan). […] The cell pellets were resuspended in 0.5 mL PBS for flow cytometric analysis using a BD LSR II flow cytometer (BD Biosciences, San Jose, CA) and the data were analyzed using FACSDiva software (BD Biosciences, San Jose, CA). […]

With `CCCCC/C=C/C/C=C/CCCCCCCC(=O)OCCN1CCN(CCOC(=O)CCCCCCC/C=C/C/C=C/CCCCC)CC1` [AA3-DLin], the “luciferase expression rank in lipid library screen” value in data set [1] is reported as “top-performing”.

On to “GAGCGTGCGCGAAGCGATCC (guide GAGCGUGCGCGAAGCGAUCC; listed as RNA, chemistry not fully specified) [sgRNA2, PAM AGG, strand +]”, for which the “knockout (percentage of transfected cells showing insertion or deletion)” value in the data set with Androgen Receptor gene is given as approximately 51%.

For the compound “TGATCCAGAACCCGGGCCCC (guide UGAUCCAGAACCCGGGCCCC; listed as RNA, chemistry not fully specified) [sgRNA1, PAM AGG, strand +]”, in the data set on Androgen Receptor gene, the “knockout (percentage of transfected cells showing insertion or deletion)” value is approximately 76%.
